In US6706663B2, “Herbicidal 3-heterocyclic substituted benzisothiazole and benzisoxazole compounds” (Wyeth, priority 2000, dated 2004):

What was measured:
[1] = test system: IPOHE (Ipomoea hederacea); test: Postemergence herbicidal evaluation; format: in vivo, (L.) Jacq.; conditions: postemergence
In short: (§1)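 Visual 0–9 injury scores versus control plants, covering stand, vigour, malformation, size, chlorosis and general appearance, taken four to five weeks post-spray and averaged over replicate tests. Plants were sprayed at roughly two weeks old and held on greenhouse benches.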

[2] = test system: ECHCG (Echinochloa crus-galli); test: Postemergence herbicidal evaluation; format: in vivo, (L.) Beau; conditions: postemergence
In short: as §1

[3] = test system: SETVI (Setaria viridis); test: Postemergence herbicidal evaluation; format: in vivo, (L.) Beau; conditions: postemergence
In short: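 Seedlings about two weeks old were sprayed with compound in 50/50 acetone/water plus 0.5% TWEEN 20, at the equivalent of about 0.0040 to 1.000 kg/ha. Plants were kept in a greenhouse and visually rated 0-9 against a control four to five weeks after treatment. Repeat tests were averaged.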

[4] = test system: GLXMAW (Soybean, Williams); test: Postemergence herbicidal evaluation; format: in vivo, Glycine max, (L.) Merr. cv Williams; conditions: postemergence
In short: as §1

[5] = test system: ORYSAT (Rice, Tebonnet); test: Postemergence herbicidal evaluation; format: in vivo, Oryza sativa, (L.) Tebonnet; conditions: postemergence
In short: as §1

[6] = test system: TRZAWR (Wheat, Winter, cv Riband); test: Postemergence herbicidal evaluation; format: in vivo, Triticum aestivum; conditions: postemergence
In short: as §1

[7] = test system: ZEAMX (Corn, Field); test: Postemergence herbicidal evaluation; format: in vivo, Zea mays, L.; conditions: postemergence
In short: as §1

[8] = test system: ABUTH (Abutilon theophrasti); test: Preemergence herbicidal evaluation; format: in vivo, Medic.; conditions: rated 4-5 weeks after treatment
[9] = test system: AMBEL (Ambrosia artemisifolia); test: Preemergence herbicidal evaluation; format: in vivo, L.; conditions: rated 4-5 weeks after treatment
In short: (§2)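 Rating 0–9, visual, vs control; 4–5 wk after spraying seeded cups with compound in aq. acetone; conventional greenhouse care.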

[10] = test system: CASOB (Cassia obtusifolia); test: Preemergence herbicidal evaluation; format: in vivo, L.; conditions: rated 4-5 weeks after treatment
In short: as §2

[11] = test system: CHEAL (Chenopodium album); test: Preemergence herbicidal evaluation; format: in vivo, L.; conditions: rated 4-5 weeks after treatment
In short: as §2

[12] = test system: GALAP (Galium aparine); test: Preemergence herbicidal evaluation; format: in vivo; conditions: rated 4-5 weeks after treatment
In short: as §2

[13] = test system: ECHCG (Echinochloa crus-galli); test: Preemergence herbicidal evaluation; format: in vivo, (L.) Beau; conditions: rated 4-5 weeks after treatment
In short: as §2

[14] = test system: SETVI (Setaria viridis); test: Preemergence herbicidal evaluation; format: in vivo, (L.) Beau; conditions: rated 4-5 weeks after treatment
In short: as §2

[15] = test system: ORYSAT (Rice, Tebonnet); test: Preemergence herbicidal evaluation; format: in vivo, Oryza sativa, (L.) Tebonnet; conditions: rated 4-5 weeks after treatment
[16] = test system: TRZAWR (Wheat, Winter, cv Riband); test: Preemergence herbicidal evaluation; format: in vivo, Triticum aestivum; conditions: rated 4-5 weeks after treatment
In short: as §2

[17] = test system: ECHORC (Echinochloa oryzoides); test: Flooded paddy, preemergence weed control; format: in vivo, Echinochloa oryzoides (Ard.) Fritsch.; conditions: rated 3-4 weeks after treatment, 0-9 rating scale
In short: (§3)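 Flooded silt loam pots, seeds in upper 0.5 cm, water held 1.5–3 cm deep; greenhouse; visual 0-9 score vs control.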

[18] = test system: MOOVA (Monochoria vaginalis); test: Flooded paddy, preemergence weed control; format: in vivo, Presl.; conditions: rated 3-4 weeks after treatment, 0-9 rating scale
In short: as §3

Compound: CCCC1COC(c2nsc3ccc(-n4c(=O)cc(C(F)(F)F)n(C)c4=O)cc23)O1 (stereo not drawn) [Compound 77, 1-methyl-3-[3-(4-propyl-1,3-dioxolan-2-yl)-1,2-benzisothiazol-5-yl]-6-(trifluoromethyl)uracil]
- IPOHE herbicidal rating ([1]; rate 0.0320 kg/ha): 9.0
- IPOHE herbicidal rating ([1]; rate 0.0620 kg/ha): 9.0
- ECHCG herbicidal rating ([2]; rate 0.0320 kg/ha): 4.0
- ECHCG herbicidal rating ([2]; rate 0.0620 kg/ha): 4.0
- SETVI herbicidal rating ([3]; rate 0.0320 kg/ha): 9.0
- SETVI herbicidal rating ([3]; rate 0.0620 kg/ha): 5.0
- GLXMAW herbicidal rating ([4]; rate 0.0320 kg/ha): 7.5
- GLXMAW herbicidal rating ([4]; rate 0.0620 kg/ha): 8.5
- ORYSAT herbicidal rating ([5]; rate 0.0320 kg/ha): 2.0
- ORYSAT herbicidal rating ([5]; rate 0.0620 kg/ha): 4.0
- TRZAWR herbicidal rating ([6]; rate 0.0320 kg/ha): 2.0
- TRZAWR herbicidal rating ([6]; rate 0.0620 kg/ha): 3.5
- ZEAMX herbicidal rating ([7]; rate 0.0320 kg/ha): 3.0
- ZEAMX herbicidal rating ([7]; rate 0.0620 kg/ha): 3.5
- Preemergence herbicidal rating ABUTH ([8]; Rate 0.0620 kg/ha): 9.0
- Preemergence herbicidal rating ABUTH ([8]; Rate 0.1250 kg/ha): 9.0
- Preemergence herbicidal rating ABUTH ([8]; Rate 0.2500 kg/ha): 9.0
- Preemergence herbicidal rating AMBEL ([9]; Rate 0.0620 kg/ha): 8.5
- Preemergence herbicidal rating AMBEL ([9]; Rate 0.1250 kg/ha): 9.0
- Preemergence herbicidal rating AMBEL ([9]; Rate 0.2500 kg/ha): 9.0
- Preemergence herbicidal rating CASOB ([10]; Rate 0.0620 kg/ha): 2.5
- Preemergence herbicidal rating CASOB ([10]; Rate 0.1250 kg/ha): 4.5
- Preemergence herbicidal rating CASOB ([10]; Rate 0.2500 kg/ha): 7.5
- Preemergence herbicidal rating CHEAL ([11]; Rate 0.0620 kg/ha): 9.0
- Preemergence herbicidal rating CHEAL ([11]; Rate 0.1250 kg/ha): 9.0
- Preemergence herbicidal rating CHEAL ([11]; Rate 0.2500 kg/ha): 9.0
- Preemergence herbicidal rating GALAP ([12]; Rate 0.1250 kg/ha): 7.0
- Preemergence herbicidal rating GALAP ([12]; Rate 0.2500 kg/ha): 9.0
- Preemergence herbicidal rating ECHCG ([13]; Rate 0.0620 kg/ha): 8.5
- Preemergence herbicidal rating ECHCG ([13]; Rate 0.1250 kg/ha): 9.0
- Preemergence herbicidal rating ECHCG ([13]; Rate 0.2500 kg/ha): 9.0
- Preemergence herbicidal rating SETVI ([14]; Rate 0.0620 kg/ha): 8.5
- Preemergence herbicidal rating SETVI ([14]; Rate 0.1250 kg/ha): 9.0
- Preemergence herbicidal rating SETVI ([14]; Rate 0.2500 kg/ha): 9.0
- Preemergence herbicidal rating ORYSAT ([15]; Rate 0.0620 kg/ha): 5.0
- Preemergence herbicidal rating ORYSAT ([15]; Rate 0.1250 kg/ha): 5.0
- Preemergence herbicidal rating ORYSAT ([15]; Rate 0.2500 kg/ha): 5.5
- Preemergence herbicidal rating TRZAWR ([16]; Rate 0.0620 kg/ha): 6.0
- Preemergence herbicidal rating TRZAWR ([16]; Rate 0.1250 kg/ha): 6.0
- Preemergence herbicidal rating TRZAWR ([16]; Rate 0.2500 kg/ha): 7.0
- herbicidal rating, ECHORC ([17]; rate 0.0080 kg/ha): 0.0
- herbicidal rating, ECHORC ([17]; rate 0.0320 kg/ha): 5.0
- herbicidal rating, ECHORC ([17]; rate 0.1250 kg/ha): 9.0
- herbicidal rating, MOOVA ([18]; rate 0.0080 kg/ha): 0.0
- herbicidal rating, MOOVA ([18]; rate 0.0320 kg/ha): 9.0
- herbicidal rating, MOOVA ([18]; rate 0.1250 kg/ha): 9.0

Compound: Cn1c(C(F)(F)F)cc(=O)n(-c2ccc3snc(C4OCC(c5ccccc5)O4)c3c2)c1=O (stereo not drawn) [Compound 78, 1-methyl-3-[3-(4-phenyl-1,3-dioxolan-2-yl)-1,2-benzisothiazol-5-yl]-6-(trifluoromethyl)uracil]
- IPOHE herbicidal rating ([1]; rate 0.0320 kg/ha): 9.0
- IPOHE herbicidal rating ([1]; rate 0.0620 kg/ha): 9.0
- ECHCG herbicidal rating ([2]; rate 0.0320 kg/ha): 2.0
- ECHCG herbicidal rating ([2]; rate 0.0620 kg/ha): 3.0
- SETVI herbicidal rating ([3]; rate 0.0320 kg/ha): 7.0
- SETVI herbicidal rating ([3]; rate 0.0620 kg/ha): 9.0
- GLXMAW herbicidal rating ([4]; rate 0.0320 kg/ha): 5.0
- GLXMAW herbicidal rating ([4]; rate 0.0620 kg/ha): 5.5
- ORYSAT herbicidal rating ([5]; rate 0.0320 kg/ha): 4.0
- ORYSAT herbicidal rating ([5]; rate 0.0620 kg/ha): 4.0
- TRZAWR herbicidal rating ([6]; rate 0.0320 kg/ha): 3.5
- TRZAWR herbicidal rating ([6]; rate 0.0620 kg/ha): 5.0
- ZEAMX herbicidal rating ([7]; rate 0.0320 kg/ha): 3.5
- ZEAMX herbicidal rating ([7]; rate 0.0620 kg/ha): 3.5
- Preemergence herbicidal rating ABUTH ([8]; Rate 0.0620 kg/ha): 9.0
- Preemergence herbicidal rating ABUTH ([8]; Rate 0.1250 kg/ha): 9.0
- Preemergence herbicidal rating ABUTH ([8]; Rate 0.2500 kg/ha): 9.0
- Preemergence herbicidal rating AMBEL ([9]; Rate 0.0620 kg/ha): 9.0
- Preemergence herbicidal rating AMBEL ([9]; Rate 0.1250 kg/ha): 9.0
- Preemergence herbicidal rating AMBEL ([9]; Rate 0.2500 kg/ha): 9.0
- Preemergence herbicidal rating CASOB ([10]; Rate 0.0620 kg/ha): 2.0
- Preemergence herbicidal rating CASOB ([10]; Rate 0.1250 kg/ha): 4.0
- Preemergence herbicidal rating CASOB ([10]; Rate 0.2500 kg/ha): 6.0
- Preemergence herbicidal rating CHEAL ([11]; Rate 0.0620 kg/ha): 9.0
- Preemergence herbicidal rating CHEAL ([11]; Rate 0.1250 kg/ha): 9.0
- Preemergence herbicidal rating CHEAL ([11]; Rate 0.2500 kg/ha): 9.0
- Preemergence herbicidal rating GALAP ([12]; Rate 0.0620 kg/ha): 7.0
- Preemergence herbicidal rating GALAP ([12]; Rate 0.1250 kg/ha): 7.0
- Preemergence herbicidal rating GALAP ([12]; Rate 0.2500 kg/ha): 7.0
- Preemergence herbicidal rating ECHCG ([13]; Rate 0.0620 kg/ha): 8.5
- Preemergence herbicidal rating ECHCG ([13]; Rate 0.1250 kg/ha): 9.0
- Preemergence herbicidal rating ECHCG ([13]; Rate 0.2500 kg/ha): 8.0
- Preemergence herbicidal rating SETVI ([14]; Rate 0.0620 kg/ha): 9.0
- Preemergence herbicidal rating SETVI ([14]; Rate 0.1250 kg/ha): 9.0
- Preemergence herbicidal rating SETVI ([14]; Rate 0.2500 kg/ha): 9.0
- Preemergence herbicidal rating ORYSAT ([15]; Rate 0.0620 kg/ha): 2.0
- Preemergence herbicidal rating ORYSAT ([15]; Rate 0.1250 kg/ha): 2.5
- Preemergence herbicidal rating ORYSAT ([15]; Rate 0.2500 kg/ha): 3.0
- Preemergence herbicidal rating TRZAWR ([16]; Rate 0.0620 kg/ha): 5.0
- Preemergence herbicidal rating TRZAWR ([16]; Rate 0.1250 kg/ha): 5.0
- Preemergence herbicidal rating TRZAWR ([16]; Rate 0.2500 kg/ha): 6.0
- herbicidal rating, ECHORC ([17]; rate 0.0080 kg/ha): 8.0
- herbicidal rating, ECHORC ([17]; rate 0.0320 kg/ha): 9.0
- herbicidal rating, ECHORC ([17]; rate 0.1250 kg/ha): 9.0
- herbicidal rating, MOOVA ([18]; rate 0.0080 kg/ha): 7.7
- herbicidal rating, MOOVA ([18]; rate 0.0320 kg/ha): 9.0
- herbicidal rating, MOOVA ([18]; rate 0.1250 kg/ha): 9.0
